For data set [1], the system named is Alopecurus myosuroides. The data set is described as follows: Test Example 1 foliage treatment, weed killing rate. To be noted: foliar, 504 h, 250 g/ha active ingredient, foliage spray, after 3 weeks. The data set is classed as in vivo. On the procedure: (§1) POA allylphenyl ether (4.1 parts by weight), POE-POP glycol (1 part by weight), POE sorbitan laurate (0.8 parts by weight), glycerin (2.6 parts by weight), dimethylformamide (65.9 parts by weight), N-methylpyrrolidone (5.1 parts by weight), cyclohexanone (15.4 parts by weight), and aromatic hydrocarbons (5.1 parts by weight) were mixed to obtain an emulsion.
(§2) The compound of the present invention (4 mg) was dissolved in this emulsion (100 μt) to obtain a test emulsion. POA means “polyoxyalkylene”, POE means “polyoxyethylene”, and POP means “polyoxypropylene”.
(§3) In a 150 cm^2 pot filled with soil, seeds of Digitaria ciliaris, Amaranthus retroflexus, Alopecurus myosuroides and Matricaria chamomilla were respectively sown and covered lightly with soil. Thereafter, they were grown in a greenhouse. When each plant grew to a plant height of 2 to 5 cm, the above test emulsion was diluted with water and sprayed on the foliage with a small sprayer at a spray water volume of 250 L per hectare (the amount of active ingredient of 250 g per hectare).
(§4) After 3 weeks, the above ground weights of weeds in the untreated and treated areas were measured for each plant, and the weed killing rate was calculated by the following calculation formula.
(§5) Weed killing rate (%)=[{(above ground weight of weeds in untreated area)−(above ground weight of weeds in treated area)}/(above ground weight of weeds in untreated area)]×100

Data set [2] relates to Amaranthus retroflexus. Described as above. The data set is classed as in vivo. The conditions noted are these: foliar, 504 h, 250 g/ha active ingredient, foliage spray, after 3 weeks. On the procedure:
as §1, §2, §3, §4, §5

The subject of data set [3] is Digitaria ciliaris. Described as above. The conditions noted are these: foliar, 504 h, 250 g/ha active ingredient, foliage spray, after 3 weeks. Format: in vivo. On the procedure:
as §1, §2, §3, §4, §5

In data set [4] the test system is Matricaria chamomilla. The description is as above. The data set is classed as in vivo. The conditions noted are these: foliar, 504 h, 250 g/ha active ingredient, foliage spray, after 3 weeks. On the procedure: as §1, §2, §3, §4, §5
In data set [5] the test system is Alopecurus myosuroides. The data set is described as follows: Test Example 2 foliage treatment, weed killing rate. Format: in vivo. The conditions noted are these: foliage spray, after 4 weeks. On the procedure: (§6) In a 150 cm^2 pot filled with soil, seeds of Alopecurus myosuroides, Setaria faberi and Zea mays were sown and covered lightly with soil. Thereafter, they were grown in a greenhouse. When Alopecurus myosuroides and Setaria faberi grew to a plant height of 2 to 5 cm and Zea mays grew to 30 to 35 cm, the test emulsion obtained in Test Example 1 was diluted with water and sprayed on the foliage with a small sprayer at a spray water volume of 250 L per hectare (the amount of active ingredient of 250 g, 63 g, or 16 g per hectare). Also for the compound represented by the formula (B) (Compound No. B-1), a test emulsion was obtained in the same manner as in Test Example 1, and Test Example 2 was carried out using the emulsion. After 4 weeks, the above ground weights of weeds in the untreated and treated areas were measured for each plant, and the weed killing rate was calculated by the following calculation formula. Weed killing rate (%)=[{(above ground weight of weeds in untreated area)−(above ground weight of weeds in treated area)}/(above ground weight of weeds in untreated area)]×100

Data set [6] has as its system Setaria faberi. The description is as above. To be noted: foliage spray, after 4 weeks. The data set is classed as in vivo. On the procedure:
as §6

Data set [7] has as its system Zea mays. Description: Test Example 2 foliage treatment, weed killing rate on maize (phytotoxicity). Format: in vivo. To be noted: foliage spray, after 4 weeks, crop (phytotoxicity to maize). On the procedure:
as §6

The text below walks through data of patent publication US20230148602A1, “BENZAMIDE COMPOUND AND HERBICIDE” (Nippon Soda Co., Ltd., priority 2020, published 2023).

On to `Cc1c(NC(=O)C(=O)N(C)C)c(Br)cc(F)c1C(=O)Nc1nnnn1C` [A-1, N^1-(6-bromo-4-fluoro-2-methyl-3-((1-methyl-1H-tetrazol-5-yl)carbamoyl)phenyl)-N^2,N^2-dimethyloxalamide], for which the pest or weed control at 250 g/ha in data set [1], in data set [2], in data set [3] and in data set [4] was 100% throughout.
For the compound `CCN(C)C(=O)C(=O)Nc1c(Br)cc(F)c(C(=O)Nc2nnnn2C)c1C` [A-2], the melting point – broadly, the temperature of the solid-liquid transition – was in the range of 191 to 194 °C. The pest or weed control (commonly the degree to which the test organism was suppressed or injured, in per cent) at 250 g/ha in data set [1] is 100%. The compound also returned a pest or weed control at 250 g/ha in data set [2] of 100%. Besides, the pest or weed control at 250 g/ha in data set [3] was 100%. The pest or weed control at 250 g/ha in data set [4] stood at 100%.
Turning to `Cc1c(NC(=O)C(=O)N(C)CC(F)(F)F)c(Br)cc(F)c1C(=O)Nc1nnnn1C` [A-3], the “Weed killing rate Alopecurus myosuroides” value worked out at 80% in data set [5] (16 g/ha active ingredient), 100% in data set [5] (63 g/ha active ingredient) and 100% in data set [5] (250 g/ha active ingredient). Besides, the “Weed killing rate Setaria faberi” value turned out to be 50% in data set [6] (16 g/ha active ingredient), 100% in data set [6] (63 g/ha active ingredient) and 100% in data set [6] (250 g/ha active ingredient). The “Weed killing rate Zea mays” value amounted to 0% in data set [7] (16 g/ha active ingredient), 0% in data set [7] (63 g/ha active ingredient) and 30% in data set [7] (250 g/ha active ingredient). Moreover, the pest or weed control at 250 g/ha in data set [1], in data set [2], in data set [3] and in data set [4] was 100% in each case.
For the compound `COCCN(C)C(=O)C(=O)Nc1c(Br)cc(F)c(C(=O)Nc2nnnn2C)c1C` [A-5], the melting point is 179 to 181 °C. The compound further came in with a pest or weed control at 250 g/ha in data set [1] of 70%. In data set [2], this compound showed a pest or weed control at 250 g/ha of 80%. This compound showed a pest or weed control at 250 g/ha in data set [3] of 80%.
Regarding `Cc1c(NC(=O)C(=O)N(C)C2CC2)c(Br)cc(F)c1C(=O)Nc1nnnn1C` [A-6], the melting point was 188 to 192 °C. In data set [1], this compound had a pest or weed control at 250 g/ha of 90%. In addition, the pest or weed control at 250 g/ha in data set [2] turned out to be 100%. Besides, the pest or weed control at 250 g/ha in data set [3] was found to be 80%. The compound further came in with a pest or weed control at 250 g/ha in data set [4] of 100%.
Regarding `Cc1c(NC(=O)C(=O)N2CCOCC2)c(Br)cc(F)c1C(=O)Nc1nnnn1C` [A-7], the melting point was in the range of 244 to 246 °C. For the same compound, in data set [2], the pest or weed control at 250 g/ha turned out to be 70%.
Take `CCN(C)C(=O)C(=O)Nc1c(Br)cc(F)c(C(=O)Nc2nnnn2C)c1Cl` [A-8]: the melting point fell in the range of 233 to 235 °C. In data set [1], the pest or weed control at 250 g/ha was found to be 100%. In data set [2], this compound registered a pest or weed control at 250 g/ha of 100%. Also, the pest or weed control at 250 g/ha in data set [3] came out at 70%. Further, in data set [4], the pest or weed control at 250 g/ha is 100%.
As to `CCN(CC)C(=O)C(=O)Nc1c(Br)cc(F)c(C(=O)Nc2nnnn2C)c1Cl` [A-9], the melting point lay within 220 to 223 °C. This compound registered a pest or weed control at 250 g/ha in data set [1] of 100%. The pest or weed control at 250 g/ha in data set [2] came to 80%. Further, in data set [3], the pest or weed control at 250 g/ha stood at 70%. The same compound showed a pest or weed control at 250 g/ha in data set [4] of 100%.
Regarding `CN(CC(F)(F)F)C(=O)C(=O)Nc1c(Br)cc(F)c(C(=O)Nc2nnnn2C)c1Cl` [A-10], the melting point fell in the range of 243 to 246 °C. For the same compound, the pest or weed control at 250 g/ha in data set [1] was found to be 70%. The compound also yielded a pest or weed control at 250 g/ha in data set [2] of 100%. Also, in data set [4], the pest or weed control at 250 g/ha is 100%.
For the compound `Cc1c(C(=O)Nc2nnnn2C)ccc(Br)c1NC(=O)C(=O)N(C)CC(F)(F)F` [A-11], the melting point lay in the range of 204 to 206 °C. In addition, the pest or weed control at 250 g/ha in data set [1] turned out to be 100%. This compound displayed a pest or weed control at 250 g/ha in data set [2] of 100%. For the same compound, in data set [3], the pest or weed control at 250 g/ha turned out to be 100%. Moreover, the pest or weed control at 250 g/ha in data set [4] turned out to be 100%.
With `Cc1c(NC(=O)C(=O)N(C)CC(F)(F)F)cccc1C(=O)Nc1nnnn1C` [A-12], the melting point was 104 to 107 °C.
Compound `CCN(CC)C(=O)C(=O)Nc1c(Br)cc(F)c(C(=O)Nc2nnnn2C)c1C` [A-13] showed a melting point of 198 to 201 °C. Also, the pest or weed control at 250 g/ha in data set [1] stood at 100%. This compound also yielded a pest or weed control at 250 g/ha in data set [2] of 100%. Also, in data set [3], the pest or weed control at 250 g/ha turned out to be 90%. In addition, in data set [4], the pest or weed control at 250 g/ha worked out at 100%.
Compound `Cc1c(NC(=O)C(=O)N2CCCC2)c(Br)cc(F)c1C(=O)Nc1nnnn1C` [A-14] displayed a melting point of 275 to 278 °C. The same compound had a pest or weed control at 250 g/ha in data set [2] of 80%.
The compound `CCOC(=O)C(=O)Nc1c(Br)cc(F)c(C(=O)Nc2nnnn2C)c1C` [A-15] displayed a melting point of 154 to 157 °C.
`CC(=O)C(=O)Nc1c(Br)cc(F)c(C(=O)Nc2nnnn2C)c1C` [A-16]: the melting point was in the range of 221 to 223 °C. The same compound came in with a pest or weed control at 250 g/ha in data set [2] of 70%. In data set [4], this compound yielded a pest or weed control at 250 g/ha of 90%.
The compound `CON(C)C(=O)C(=O)Nc1c(Br)cc(F)c(C(=O)Nc2nnnn2C)c1C` [A-17] yielded a melting point of 212 to 215 °C.
On to `Cc1c(C(=O)Nc2nnnn2C)ccc(C(F)(F)F)c1NC(=O)C(=O)N(C)CC(F)(F)F` [A-18], for which the melting point is 190 to 193 °C.
As to `Cc1c(NC(=O)N(C)CC(F)(F)F)c(Br)cc(F)c1C(=O)Nc1nnnn1C` [B-1, reference compound], the “Weed killing rate Alopecurus myosuroides” value in data set [5] (16 g/ha active ingredient) amounted to 40%; in data set [5] (63 g/ha active ingredient) it was 50%; in data set [5] (250 g/ha active ingredient), 90%. The “Weed killing rate Setaria faberi” value was 20% in data set [6] (16 g/ha active ingredient), 50% in data set [6] (63 g/ha active ingredient) and 100% in data set [6] (250 g/ha active ingredient). Moreover, the “Weed killing rate Zea mays” value turned out to be 20% in data set [7] (16 g/ha active ingredient), 30% in data set [7] (63 g/ha active ingredient) and 90% in data set [7] (250 g/ha active ingredient).
